3 molecules from US20190144406A1, “CRYSTALLINE FORMS OF DIMETHOXY DOCETAXEL AND METHODS FOR PREPARING THE SAME” (Aventis Pharma S.A., priority 2008, published 2019) can be followed below.

Like-named read-outs stand apart in the source and are kept apart here.

For series [1] the following is noted: solid form. As to the method:
The analyses were carried out on a Panalytical X'Pert Pro diffractometer with a reflection-mode Bragg-Brentano focusing geometry (θ-2θ) assembly. The product analysed is deposited as a thin layer on a silicon single crystal. A copper anticathode tube (45 kV/40 mA) supplies an incident radiation Cu Kα1 (λ=1.5406 Å). The beam is collimated using Sollers slits which improve the parallelism and variable slits which limit scattering. An X'Celerator detector completes the device. The diagram recording characteristics are the following: sweeping from 2 to 30 degrees 2θ, counting time from 100 to 500 seconds per step with a step of 0.017°.

Series [2] in a line: behaviour of the crystalline form under relative humidity. In kind it is physicochemical. The settings on record: relative humidity of greater than 5%.

`CO[C@H]1C(=O)[C@]2(C)[C@@H](OC)C[C@H]3OC[C@@]3(OC(C)=O)[C@H]2[C@H](OC(=O)c2ccccc2)[C@]2(O)C[C@H](OC(=O)[C@H](O)[C@@H](NC(=O)OC(C)(C)C)c3ccccc3)C(C)=C1C2(C)C` [Form A, reference compound]: in series [1], the “comparison of the PXRD analyses immediately after production and after maintaining at 40° C. for one month” value is “partial desolvation resulting in a mixture of the acetone solvate form A and of the anhydrous form B being obtained”. As to `CO[C@H]1C(=O)[C@]2(C)[C@@H](OC)C[C@H]3OC[C@@]3(OC(C)=O)[C@H]2[C@H](OC(=O)c2ccccc2)[C@]2(O)C[C@H](OC(=O)[C@H](O)[C@@H](NC(=O)OC(C)(C)C)c3ccccc3)C(C)=C1C2(C)C` [Form D], the “comparison of the PXRD analyses immediately after production and after maintaining at 40° C. for one month” value in series [1] is on record as “no change detected”. For the setting “listed as anhydrous form D”, the “stability relative to the other forms described” value was “most stable anhydrous form”. Turning to `CO[C@H]1C(=O)[C@]2(C)[C@@H](OC)C[C@H]3OC[C@@]3(OC(C)=O)[C@H]2[C@H](OC(=O)c2ccccc2)[C@]2(O)C[C@H](OC(=O)[C@H](O)[C@@H](NC(=O)OC(C)(C)C)c3ccccc3)C(C)=C1C2(C)C` [anhydrous form C], the “stability relative to the other forms described” value was “least stable”. Further, in series [2], the “change of form in the presence of relative humidity” value is given as “changes to a hydrated form”.
